Data published in ChEMBL document CHEMBL1145929, “Syntheses and binding studies of new [(aryl)(aryloxy)methyl]piperidine derivatives and related compounds as potential antidepressant drugs with high affinity for serotonin (5-HT) and norepinephrine (NE) transporters” (J Med Chem, 2003).

What follows are compounds tested against T1, 5-hydroxytryptamine receptor 2A (Rattus norvegicus, UniProt P14842) (assay: Binding affinity against 5-hydroxytryptamine 2A receptor by displacement of [3H]ketanserin from rat prefrontal cerebral cortex mambranes).
T1 sequence (P14842 whole entry): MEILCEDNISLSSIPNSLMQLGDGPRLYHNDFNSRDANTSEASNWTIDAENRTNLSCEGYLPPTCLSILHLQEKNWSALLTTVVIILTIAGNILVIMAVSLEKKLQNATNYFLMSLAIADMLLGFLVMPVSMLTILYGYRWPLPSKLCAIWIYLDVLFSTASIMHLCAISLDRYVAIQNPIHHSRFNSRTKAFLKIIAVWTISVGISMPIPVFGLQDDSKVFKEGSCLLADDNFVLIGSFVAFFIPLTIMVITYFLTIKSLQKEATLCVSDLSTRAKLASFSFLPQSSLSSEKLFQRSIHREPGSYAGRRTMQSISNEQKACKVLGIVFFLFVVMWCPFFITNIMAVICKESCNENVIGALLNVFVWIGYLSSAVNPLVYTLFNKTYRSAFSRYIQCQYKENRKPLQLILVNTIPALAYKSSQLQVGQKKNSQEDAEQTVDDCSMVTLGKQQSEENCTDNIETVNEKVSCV
Type: tissue-based, Frontal cortex
Work on `Nc1ccc(OC(CCC(=O)C2CCN(c3ccc(F)cc3)CC2)c2ccc(F)cc2)cc1` (centres undefined) yielded a Ki of 0.0144 µM. Compound `O=C(CCC(Oc1ccccc1F)c1ccccc1)C1CCN(c2ccc(F)cc2)CC1` (centres undefined) has a Ki of 0.008 µM. `Fc1ccccc1OC(CCN1CCN(c2noc3ccccc23)CC1)c1ccccc1` (centres undefined) showed a Ki of 0.0172 µM. `Fc1ccccc1OC(CCN1CCN(c2nsc3ccccc23)CC1)c1ccccc1` (centres undefined) was tested, and the Ki was 0.0053 µM. `COc1ccc(OC(CCN2CCN(c3noc4ccccc34)CC2)c2ccccc2)cc1` (centres undefined) gave a Ki of 0.0189 µM. `O=C(CCC(Oc1ccc([N+](=O)[O-])cc1)c1ccc(F)cc1)C1CCN(c2ccc(F)cc2)CC1` (centres undefined) gave a Ki of 0.0551 µM. `CN1CCC(C(Oc2ccc(F)cc2)c2ccccc2)CC1` (centres undefined) showed a Ki of 0.0444 µM. In the case of `O=[N+]([O-])c1ccc(OC(CCN2CCN(c3n[o+][c-]4ccccc34)CC2)c2ccccc2)cc1` (centres undefined), the Ki is reported as 0.0533 µM. Compound `COc1ccc(OC(CCC(=O)C2CCN(c3ccc(F)cc3)CC2)c2ccccc2)cc1` (centres undefined) has a Ki of 0.0538 µM. Compound `Nc1ccc(OC(CCC(=O)C2CCN(c3ccc(F)cc3)CC2)c2ccccc2)cc1` (centres undefined) has a Ki of 0.0164 µM.

The compounds below were run against Sodium-dependent dopamine transporter (Rattus norvegicus, UniProt P23977) (assay: Binding affinity against dopamine transporter (DAT) by displacement of [3H]WIN-35428 in male wistar rats).
Sodium-dependent dopamine transporter, sequence (P23977 whole entry): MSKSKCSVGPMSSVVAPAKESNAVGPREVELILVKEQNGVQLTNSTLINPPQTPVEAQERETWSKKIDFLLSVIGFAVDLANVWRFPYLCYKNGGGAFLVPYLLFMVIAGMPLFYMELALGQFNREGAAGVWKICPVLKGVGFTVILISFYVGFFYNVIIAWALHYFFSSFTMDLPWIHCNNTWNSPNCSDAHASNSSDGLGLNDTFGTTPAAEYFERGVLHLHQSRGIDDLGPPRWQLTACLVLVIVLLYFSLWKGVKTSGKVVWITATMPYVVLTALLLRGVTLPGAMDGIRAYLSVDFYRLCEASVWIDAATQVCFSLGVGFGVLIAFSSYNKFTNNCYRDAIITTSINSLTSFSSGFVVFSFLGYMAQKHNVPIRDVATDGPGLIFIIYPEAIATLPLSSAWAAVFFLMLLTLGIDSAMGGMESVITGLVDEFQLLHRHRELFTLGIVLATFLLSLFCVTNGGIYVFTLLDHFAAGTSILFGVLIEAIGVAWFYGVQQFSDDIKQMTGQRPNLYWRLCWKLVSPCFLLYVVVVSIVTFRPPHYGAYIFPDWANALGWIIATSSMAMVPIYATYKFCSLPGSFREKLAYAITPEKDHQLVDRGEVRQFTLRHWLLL
`Clc1cccc(OC(c2ccccc2)C2CCNCC2)c1` (stereo in doubt; (+)-15l) was tested, and the IC50 was > 1 µM. For `CCCN(CCC)C1CCc2cccc(O)c2C1` (centres undefined) [8-OH-DPAT], the IC50 was > 1 µM. With `Clc1cccc(OC(c2ccccc2)C2CCNCC2)c1` (stereo in doubt; (-)-15l) the IC50 was > 0.5 µM. For `CN1CCN2c3ncccc3Cc3ccccc3C2C1` (centres undefined) [MIRTAZAPINE], the IC50 was > 1 µM. For `FC(F)(F)c1ccc(OC(c2ccccc2)C2CCNCC2)cc1` (single isomer, unassigned; (-)), the IC50 was > 1 µM. `Fc1cccc(OC(c2ccccc2)C2CCNCC2)c1` (stereo in doubt; (+)-15j) was tested, and the Ki was 0.163 µM. `Fc1cc(F)cc(OC(c2ccccc2)C2CCNCC2)c1` (stereo in doubt; (-)-15aj) was tested, and the IC50 was > 1 µM. `Fc1ccccc1OC(c1ccccc1)C1CCNCC1` (single isomer, unassigned; (-)) was tested, and the IC50 was > 1 µM. For `O=[N+]([O-])c1ccc(OC(c2ccccc2)C2CCNCC2)cc1` (single isomer, unassigned; (+)), the IC50 was > 1 µM. `FC(F)(F)c1ccc(OC(c2ccccc2)C2CCNCC2)cc1` (stereo in doubt; (+)-15q) was tested, and the IC50 was > 1 µM.

What follows are compounds tested against T2, Sodium-dependent serotonin transporter (Rattus norvegicus, UniProt P31652) (assay: Binding affinity against serotonin transporter (SERT) by displacement of [3H]paroxetine in male wistar rats).
T2 sequence (P31652 whole entry): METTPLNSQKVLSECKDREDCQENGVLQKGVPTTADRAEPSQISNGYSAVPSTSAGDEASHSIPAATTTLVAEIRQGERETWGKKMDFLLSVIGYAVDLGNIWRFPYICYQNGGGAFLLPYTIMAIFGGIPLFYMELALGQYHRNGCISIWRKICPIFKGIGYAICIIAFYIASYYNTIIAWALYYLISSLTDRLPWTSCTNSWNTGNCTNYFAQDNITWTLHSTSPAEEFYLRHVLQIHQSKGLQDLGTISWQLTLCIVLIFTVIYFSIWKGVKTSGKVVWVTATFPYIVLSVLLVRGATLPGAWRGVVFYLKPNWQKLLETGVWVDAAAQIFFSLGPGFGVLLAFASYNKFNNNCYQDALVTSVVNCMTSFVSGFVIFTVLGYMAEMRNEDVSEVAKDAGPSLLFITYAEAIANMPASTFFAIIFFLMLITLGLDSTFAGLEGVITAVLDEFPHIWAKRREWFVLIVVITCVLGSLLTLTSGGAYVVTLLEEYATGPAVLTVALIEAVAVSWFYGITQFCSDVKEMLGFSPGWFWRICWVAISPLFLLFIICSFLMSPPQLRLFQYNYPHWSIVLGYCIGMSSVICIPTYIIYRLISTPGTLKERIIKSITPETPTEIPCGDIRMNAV
With `CCCN(CCC)C1CCc2cccc(O)c2C1` (centres undefined) [8-OH-DPAT] the IC50 was > 1 µM. For `CN1CCN2c3ncccc3Cc3ccccc3C2C1` (centres undefined) [MIRTAZAPINE], the IC50 was > 1 µM. In the case of `Nc1ccc(OC(CCC(=O)C2CCN(c3ccc(F)cc3)CC2)c2ccc(F)cc2)cc1` (centres undefined), the IC50 is reported as > 1 µM. `O=C(CCC(Oc1ccccc1F)c1ccccc1)C1CCN(c2ccc(F)cc2)CC1` (centres undefined) was tested, and the IC50 was > 1 µM. `Fc1ccccc1OC(CCN1CCN(c2noc3ccccc23)CC1)c1ccccc1` (centres undefined) was tested, and the IC50 was > 1 µM. `COc1ccc(OC(CCN2CCN(c3noc4ccccc34)CC2)c2ccccc2)cc1` (centres undefined) was tested, and the IC50 was > 1 µM. For `O=C(CCC(Oc1ccc([N+](=O)[O-])cc1)c1ccc(F)cc1)C1CCN(c2ccc(F)cc2)CC1` (centres undefined), the IC50 was > 1 µM. In the case of `CN1CCC(C(Oc2ccc(F)cc2)c2ccccc2)CC1` (centres undefined), the IC50 is reported as > 1 µM. With `O=[N+]([O-])c1ccc(OC(CCN2CCN(c3n[o+][c-]4ccccc34)CC2)c2ccccc2)cc1` (centres undefined) the IC50 was > 1 µM. `COc1ccc(OC(CCC(=O)C2CCN(c3ccc(F)cc3)CC2)c2ccccc2)cc1` (centres undefined) was tested, and the IC50 was > 1 µM. In the case of `Nc1ccc(OC(CCC(=O)C2CCN(c3ccc(F)cc3)CC2)c2ccccc2)cc1` (centres undefined), the IC50 is reported as > 1 µM.

These compounds were tested against T3, 5-hydroxytryptamine receptor 1A (Rattus norvegicus, UniProt P19327) (assay: Binding affinity against 5-hydroxytryptamine 1A receptor (5-HT1A) by displacement of [3H]8-OH-DPAT from rat hippocampus membranes).
T3 sequence (P19327 whole entry): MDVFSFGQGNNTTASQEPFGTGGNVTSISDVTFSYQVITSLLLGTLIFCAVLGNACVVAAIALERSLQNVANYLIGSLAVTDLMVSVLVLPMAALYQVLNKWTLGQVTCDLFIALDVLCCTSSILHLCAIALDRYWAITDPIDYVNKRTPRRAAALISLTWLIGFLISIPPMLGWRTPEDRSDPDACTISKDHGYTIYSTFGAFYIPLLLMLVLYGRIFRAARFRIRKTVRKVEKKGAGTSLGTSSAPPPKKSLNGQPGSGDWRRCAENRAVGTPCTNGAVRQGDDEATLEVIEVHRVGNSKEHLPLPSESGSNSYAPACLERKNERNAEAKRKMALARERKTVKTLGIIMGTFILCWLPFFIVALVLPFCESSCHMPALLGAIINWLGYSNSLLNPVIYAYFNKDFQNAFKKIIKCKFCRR
Type: cell membranes, Membrane
With `Clc1cccc(OC(c2ccccc2)C2CCNCC2)c1` (stereo in doubt; (+)-15l) the IC50 was > 1 µM. In the case of `Clc1cccc(OC(c2ccccc2)C2CCNCC2)c1` (stereo in doubt; (-)-15l), the IC50 is reported as > 1 µM. In the case of `Fc1cccc(OC(c2ccccc2)C2CCNCC2)c1` (stereo in doubt; (-)-15j), the IC50 is reported as > 1 µM. With `CN1CCN2c3ncccc3Cc3ccccc3C2C1` (centres undefined) [MIRTAZAPINE] the IC50 was > 1 µM. In the case of `Fc1cccc(OC(c2ccccc2)C2CCNCC2)c1` (stereo in doubt; (+)-15j), the IC50 is reported as > 1 µM. `Nc1ccc(OC(CCC(=O)C2CCN(c3ccc(F)cc3)CC2)c2ccc(F)cc2)cc1` (centres undefined) was tested, and the IC50 was > 1 µM. For `Fc1cc(F)cc(OC(c2ccccc2)C2CCNCC2)c1` (stereo in doubt; (-)-15aj), the IC50 was > 1 µM. With `O=C(CCC(Oc1ccc([N+](=O)[O-])cc1)c1ccc(F)cc1)C1CCN(c2ccc(F)cc2)CC1` (centres undefined) the IC50 was > 1 µM. For `Fc1ccccc1OC(c1ccccc1)C1CCNCC1` (single isomer, unassigned; (-)), the IC50 was > 1 µM. For `CN1CCC(C(Oc2ccc(F)cc2)c2ccccc2)CC1` (centres undefined), the IC50 was > 1 µM. In the case of `O=[N+]([O-])c1ccc(OC(c2ccccc2)C2CCNCC2)cc1` (single isomer, unassigned; (+)), the IC50 is reported as > 1 µM. For `Fc1cccc(C(Oc2ccccc2F)C2CCNCC2)c1` (single isomer, unassigned; (+)), the IC50 was > 1 µM.

The compounds below were run against Norepinephrine transporter (Rattus norvegicus, UniProt Q9WTR4) (assay: Binding affinity against norepinephrine transporter (NET) by displacement of [3H]nisoxetine in male wistar rats).
Norepinephrine transporter, sequence (Q9WTR4 whole entry): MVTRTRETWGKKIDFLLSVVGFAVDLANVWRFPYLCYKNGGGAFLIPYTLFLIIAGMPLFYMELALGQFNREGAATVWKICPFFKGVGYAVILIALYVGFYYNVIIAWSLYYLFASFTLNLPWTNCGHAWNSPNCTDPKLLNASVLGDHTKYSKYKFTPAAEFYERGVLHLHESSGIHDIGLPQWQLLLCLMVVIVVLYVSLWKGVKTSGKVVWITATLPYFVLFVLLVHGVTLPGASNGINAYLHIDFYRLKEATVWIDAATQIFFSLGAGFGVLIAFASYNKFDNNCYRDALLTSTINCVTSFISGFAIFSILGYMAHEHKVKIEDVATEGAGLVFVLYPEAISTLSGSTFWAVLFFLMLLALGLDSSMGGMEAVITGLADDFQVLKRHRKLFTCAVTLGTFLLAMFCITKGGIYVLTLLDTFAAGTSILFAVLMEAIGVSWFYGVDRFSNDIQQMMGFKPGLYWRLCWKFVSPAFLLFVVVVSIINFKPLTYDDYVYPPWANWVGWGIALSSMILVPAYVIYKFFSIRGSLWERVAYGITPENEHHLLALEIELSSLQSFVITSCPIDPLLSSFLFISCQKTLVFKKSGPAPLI
With `CCCN(CCC)C1CCc2cccc(O)c2C1` (centres undefined) [8-OH-DPAT] the IC50 was > 1 µM. With `Fc1cccc(OC(c2ccccc2)C2CCNCC2)c1` (stereo in doubt; (-)-15j) the Ki was 0.0135 µM. With `CN1CCN2c3ncccc3Cc3ccccc3C2C1` (centres undefined) [MIRTAZAPINE] the IC50 was > 1 µM. For `FC(F)(F)c1ccc(OC(c2ccccc2)C2CCNCC2)cc1` (single isomer, unassigned; (-)), the IC50 was > 1 µM. In the case of `Fc1cccc(OC(c2ccccc2)C2CCNCC2)c1` (stereo in doubt; (+)-15j), the Ki is reported as 0.0983 µM. With `Fc1ccccc1OC(c1ccccc1)C1CCNCC1` (single isomer, unassigned; (-)) the Ki was 0.0225 µM. `O=[N+]([O-])c1ccc(OC(c2ccccc2)C2CCNCC2)cc1` (single isomer, unassigned; (+)) was tested, and the IC50 was > 1 µM. For `FC(F)(F)c1ccc(OC(c2ccccc2)C2CCNCC2)cc1` (stereo in doubt; (+)-15q), the IC50 was > 1 µM. With `Fc1cccc(C(Oc2ccccc2F)C2CCNCC2)c1` (single isomer, unassigned; (+)) the Ki was 0.0481 µM.

The compounds below were run against T3, 5-hydroxytryptamine receptor 1A (assay: Displacement of [3H]8-OH-DPAT from 5-hydroxytryptamine 1A receptor of rat hippocampus mambranes).
Type: tissue-based
For `O=C(CCC(Oc1ccccc1F)c1ccccc1)C1CCN(c2ccc(F)cc2)CC1` (centres undefined), the Ki was 0.0378 µM. With `Fc1ccccc1OC(CCN1CCN(c2noc3ccccc23)CC1)c1ccccc1` (centres undefined) the Ki was 0.118 µM. With `Fc1ccccc1OC(CCN1CCN(c2nsc3ccccc23)CC1)c1ccccc1` (centres undefined) the Ki was 0.0702 µM. Work on `COc1ccc(OC(CCN2CCN(c3noc4ccccc34)CC2)c2ccccc2)cc1` (centres undefined) yielded a Ki of 0.182 µM. For `O=[N+]([O-])c1ccc(OC(CCN2CCN(c3n[o+][c-]4ccccc34)CC2)c2ccccc2)cc1` (centres undefined), the Ki was 0.254 µM. `COc1ccc(OC(CCC(=O)C2CCN(c3ccc(F)cc3)CC2)c2ccccc2)cc1` (centres undefined) showed a Ki of 0.0936 µM. `Nc1ccc(OC(CCC(=O)C2CCN(c3ccc(F)cc3)CC2)c2ccccc2)cc1` (centres undefined) gave a Ki of 0.108 µM.

What follows are compounds tested against T2, Sodium-dependent serotonin transporter (assay: Binding affinity against serotonin transporter (SERT) by displacement of [3H]paroxetine in male wistar rat).
In the case of `Fc1ccccc1OC(CCN1CCN(c2nsc3ccccc23)CC1)c1ccccc1` (centres undefined), the IC50 is reported as > 1 µM.

The compounds below were run against T1, 5-hydroxytryptamine receptor 2A (assay: Binding affinity against 5-hydroxytryptamine 2A receptor by displacement of [3H]-ketanserin from rat prefrontal cerebral cortex mambranes).
Type: tissue-based, Frontal cortex
With `Clc1cccc(OC(c2ccccc2)C2CCNCC2)c1` (stereo in doubt; (+)-15l) the IC50 was > 1 µM. For `CCCN(CCC)C1CCc2cccc(O)c2C1` (centres undefined) [8-OH-DPAT], the IC50 was > 1 µM. For `Clc1cccc(OC(c2ccccc2)C2CCNCC2)c1` (stereo in doubt; (-)-15l), the IC50 was > 1 µM. With `Fc1cccc(OC(c2ccccc2)C2CCNCC2)c1` (stereo in doubt; (-)-15j) the IC50 was > 1 µM. `Fc1cccc(OC(c2ccccc2)C2CCNCC2)c1` (stereo in doubt; (+)-15j) was tested, and the IC50 was > 1 µM. `Fc1cc(F)cc(OC(c2ccccc2)C2CCNCC2)c1` (stereo in doubt; (-)-15aj) was tested, and the IC50 was > 1 µM. With `Fc1ccccc1OC(c1ccccc1)C1CCNCC1` (single isomer, unassigned; (-)) the IC50 was > 1 µM. `O=[N+]([O-])c1ccc(OC(c2ccccc2)C2CCNCC2)cc1` (single isomer, unassigned; (+)) was tested, and the IC50 was > 1 µM. With `Fc1cccc(C(Oc2ccccc2F)C2CCNCC2)c1` (single isomer, unassigned; (+)) the IC50 was > 1 µM.
